These results are taken from patent publication US20060024414A1, “Methods for preserving food products” (Kraft Foods Holdings, Inc., priority 2004, published 2006).

In experiment [1] the test system is Listeria monocytogenes. The settings on record: cells sensitized with the antioxidant at the time of pressure treatment; Mackey et al. 1995; cited from earlier work.
Experiment [2] deals with Listeria monocytogenes. The settings on record: model milk system; Payne et al. 1989; cited from earlier work.
The test system of experiment [3] is Listeria monocytogenes Scott A. Put plainly: Inoculated bagged Vienna sausage challenge, warm enrichment/plating for survivors. It counts as cell-based. The settings on record: nisin 100 IU/g, TBHQ 0 ppm, sausage about 10^6 CFU/g, about 5 min. On the procedure: (§1) In another embodiment, a food substrate processed according to methods of this invention has nondetectable levels of Listeria (even if contamination has occurred). […] The mixture is incubated at 37° C. for 48 hours, followed by the enrichment (mixture) being streaked on Oxford agar or […] agar, and observing the streaked plate for the presence/absence of Listeria. […] Tailing effects also may be reduced or eliminated by methods of the present invention. The presence or absence of other microorganisms may be detected using similar techniques modified for the specific microorganism under consideration. The edible hydroquinone was tert-butylhydroquinone (TBHQ) at a level of either 0 or 100 ppm. The tert-butylhydroquinone was a food grade material obtained from Sigma Chemical Co. (St. Louis, Mo.). The lantibiotic was nisin at a level of either 0 or 100 IU/g. The nisin used was either pure nisin or a commercial nisin ([…]®), both from Aplin & Barrett, Ltd. (Trowbridge, England). […] Nisin samples were prepared by dissolving nisin powder in distilled water, adjusting the pH to 2 with HCl, and sterilizing at 121° C. for 10 minutes. Samples were prepared and used on the same day for each experiment. Three strains of Listeria monocytogenes were used in these challenge studies. Listeria monocytogenes Scott A, OSY-8578, and OSY-328, were obtained from the Food Safety Laboratory of the Department of Food Science and Technology at The Ohio State University (Columbus, Ohio). All experiments were carried out with cultures in stationary phase (grown in tryptose broth (TB; Difco Laboratories, Detroit, Mich.) for 18 hours at 37° C.). […] The hydrostatic pressure used was 600 MPa. For comparison purposes, samples were also treated with no hydrostatic pressure (i.e., under atmospheric pressure). A hydrostatic food processor (Quintus QFP-6, ABB Autoclave Systems, Inc., Columbus, Ohio) was used with a pressure transmitting fluid containing a water/propylene glycol (1:1 vol/vol; Houghto-Safe 620-TY, Houghton International, Inc., Valley Forge, Pa.). Samples were held in a refrigerator before processing and placed on ice following treatment. The temperature during each run was monitored using a thermocouple and a datalogger (Campbell Scientific, Inc., Logan, Utah). […] Canned Vienna sausage (Armour®, The Dial Corporation, Scottsdale, Ariz.) was purchased from local grocery stores. […] One milliliter of each additive, alone or in combinations, was added, and the bags were sealed using vacuum […], Kansas City, Mo.). […] Non-pressurized samples were treated in a similar manner except that no pressure was applied. After high pressure processing, bags were opened aseptically. […] The presence or absence of L. monocytogenes survivors in the samples was determined by streaking the incubated mixture onto Oxford agar and/or […] agar. Each test run consisted of 5 tested bags at a given set of variables; the experiment was repeated 4 times. Treatment conditions required for essentially total elimination of L. monocytogenes were determined using essentially the same materials and procedures as used in Example 1 except that the nisin level was 0, 100, or 200 IU/g; the hydroquinone level was 0, 100, 200, or 300 ppm; and each experiment was repeated 3 times.

The test system of experiment [4] is Listeria monocytogenes OSY-328. Described as above. It counts as cell-based. The settings on record: nisin 100 IU/g, TBHQ 0 ppm, sausage about 10^6 CFU/g, about 5 min. On the procedure:
as §1

For experiment [5], the system named is Listeria monocytogenes OSY-8578. The description is as above. It counts as cell-based. Particulars: nisin 100 IU/g, TBHQ 0 ppm, sausage about 10^6 CFU/g, about 5 min. As to the method:
as §1

As for `COc1ccc(O)c(C(C)(C)C)c1` [BHA, butylated hydroxyanisole], the “resistance of Listeria monocytogenes to high hydrostatic pressure treatment (sensitizing effect)” value in the experiment with Listeria monocytogenes [1] is reported as “reduced”.
In the case of `Cc1cc(C(C)(C)C)c(O)c(C(C)(C)C)c1` [BHT, Butylated hydroxy toluene], the “resistance of Listeria monocytogenes to high hydrostatic pressure treatment (sensitizing effect)” value in the experiment on Listeria monocytogenes [1] is listed as “not effective”.
As for `CCCOC(=O)c1ccc(O)cc1` [Propyl paraben], the “antimicrobial activity against Listeria monocytogenes” value in the experiment on Listeria monocytogenes [2] is “only consistently active inhibitor”.
As to “nisin (ITSISLCTPGCKTGALMGCNMKTATCHCSIHVSK; not fully specified; Lantibiotic nisin-A; UniProt P13068 24-57, looked up) [lantibiotic; antimicrobial polypeptide produced by Lactococcus lactis; pure nisin or commercial Nisaplin from Aplin & Barrett]”, the “Percentage of Bags Testing Positive For Listeria in Batch of 5 (±S.D.)” value in experiment [3] (Run 2: 0 MPa) is 100%; in experiment [3] (Run 6: 600 MPa), 15 (±19) %; in experiment [4] (Run 2: 0 MPa) it was 100%; in experiment [4] (Run 6: 600 MPa), 10 (±20) %; in experiment [5] (Run 2: 0 MPa) it was 100%; in experiment [5] (Run 6: 600 MPa), 30 (±38) %.
